Test results published in US20260193295A1, “CILAGICIN COMPOUNDS AND METHODS OF USE THEREOF” (priority 2022, published 2026).
≈ marks a conversion by molar mass, not a printed value. Positions of bridges follow the written chain, without caps; N, C: chain ends. Non-standard residues stand in square brackets, D forms with d. Residues, ends and D or L forms follow the SMILES beside them. *: point of attachment. Myristoyl = CCCCCCCCCCCCCC(=O)*; dDab = NCC[C@@H](N)C(=O)O; Dab = NCC[C@H](N)C(=O)O

Columns and labels:
S. aureus = test: Direct plating of S. aureus on cilagicin-containing agar plates (resistant colonies); type: cell-based, Staphylococcus aureus; conditions: plating S. aureus directly on cilagicin-containing agar plates
Klebsiella pneumoniae = type: cell-based
Description: (§1) MIC assay were conducted using the protocol recommended by the Clinical and Laboratory Standards Institute.(37) Culture conditions (temperature, medium) are detailed in Table 3. All compounds were dissolved in sterile DMSO (ATCC, USA) to give a concentration of 6.4 mg/mL. Vancomycin hydrochloride was used as positive controls. Tested compounds were serially diluted across 96-well plates using a 2-fold serial dilution in a volume of 50 μL. An overnight culture of an assay strain was diluted 5,000-fold in fresh medium. 50 μL of this dilution was added into each well, giving a final volume of 100 μL in each well. Compounds were assayed at concentrations ranging from 64 μg/mL to 0.06 μg/mL. The top and bottom rows of each plate were filled with 100 μL of media to avoid edge effects. […] For Clostridium difficile plates were statically incubated under anaerobic conditions (Vinyl anaerobic chamber, 37° C., 5% H2, 5% CO2, 90% N2). For Streptococcus pneumoniae plates were statically incubated under aerobic conditions supplemented with 5% C02 (37° C.). All MICs were performed in technical duplicate (n=2) and repeated three independent times (n=3).

Streptococcus agalactiae = type: cell-based
Description: as §1

Enterococcus gallinarum = type: cell-based
Description: as §1

Bacillus subtilis = type: cell-based
Description: as §1

[1] = tested on: Enterococcus casseliflavus; type: cell-based
Description: as §1

Staphylococcus aureus = type: cell-based; conditions: S. aureus, presence versus absence of serum (10% serum)
Description: as §1

Enterococcus faecalis = type: cell-based
Description: as §1

Enterobacter cloacae = type: cell-based
Description: as §1

Streptococcus pyrogens = type: cell-based
Description: as §1

Enterococcus faecium = type: cell-based
Description: as §1

Gram-positive pathogens = type: cell-based
Description: as §1

Streptococcus pneumoniae = type: cell-based
Description: as §1

Acinetobacter baumannii = type: cell-based
Description: as §1

Pseudomonas aeruginosa = type: cell-based
Description: as §1

S. aureus USA300 = test: Scanning electron microscopy of treated cells; type: cell-based, Staphylococcus aureus; conditions: S. aureus USA300, 10x the MIC, 0-4 hours
Description: S. aureus USA300 cultures at different time points from the time-kill curve analysis (FIG. 2A, 0, 1, 2, and 4 hours) were used in this study. 30 μl of each cell suspension was spotted onto 12 mm glass or Aclar film round coverslips. A drop of fixative (100 μl of 2% glutaraldehyde, 4% formaldehyde in 0.1 M sodium cacodylate buffer pH 7.2) was added on top of the coverslip which was coated with 0.1% polylysine. After 30 minutes, additional fixative was added to the dish containing the coverslips and samples were left at 4° C. overnight. Samples were gently washed three times with 0.1 M sodium cacodylate buffer (pH 7.2) for 5-10 minutes each time and postfixed with osmium tetroxide 1% in 0.1M sodium cacodylate buffer pH 7.2 for 1 hour at room temperature. After rinsing three times with buffer, samples were dehydrated in a graded series of ethanol concentrations (30%, 50%, 70%, 90%) for 10 minutes each and three times in 100% ethanol (with molecular sieves) for 15 minutes each and then further dried in a critical point drier (Tousimis Autosamdri 931, USA). Samples were coated with 10 nm of iridium using a Leica ACE600 sputter coater.

[2] = tested on: cell wall biosynthesis (UDP-MurNAc-pentapeptide) in S. aureus USA300; test: UDP-MurNAc-pentapeptide accumulation assay; type: cell-based, Staphylococcus aureus; conditions: S. aureus cultures exposed at 1xMIC
Description: The effect of cilagicin on cell wall biosynthesis was investigated by tracking the accumulation UDP-MurNAc-pentapeptide in antibiotic treated cultures. Overnight S. aureus USA300 cultures were diluted in fresh LB broth and grown at 37° C. to an OD600 nm of 0.5. They were then treated with 130 μg/mL of chloramphenicol. After incubating at 37° C. for 15 minutes, 1 μg/mL of cilagicin was added. Vancomycin (10 μg/mL) and DMSO were used as positive and vehicle control, respectively. After an incubation of 60 mins, cells (0.5 mL) were harvested, and the cell pellet was resuspended in 30 μL ddH2O. The cell suspension was incubated in boiling water for 15 minutes and spun down at 15,000×g for 5 minutes. The supernatant was then analyzed by UPLC-DAD-MS (Acquity UPLC BEH C18, 2.1×50 mm, 1.7 μM, 130 Å, […] isocratic elution at 97% water:acetonitrile (ACN) for 1 minute, then from 97% to 5% water:ACN over 3 minutes, with constant 0.1% formic acid; negative ionization modes).

With `CCCCCCCCCCCCCC(=O)N[C@H](CO)C(=O)N[C@@H]1C(=O)N[C@H](CCN)C(=O)N[C@@H](CC(=O)O)C(=O)NCC(=O)N[C@H](CC(N)=O)C(=O)N[C@H](CC(=O)O)C(=O)NCC(=O)N[C@@H](Cc2ccc(O)cc2)C(=O)N[C@@H](C(C)C)C(=O)N[C@@H](CCN)C(=O)N[C@@H](Cc2ccccc2)C(=O)O[C@@H]1C` [Cilagicin] (Myristoyl-[dS]T[dDab]DG[dN][dD]GYV[Dab]F; ester 2-C) the “colonies that showed more than a 2-fold increase in MIC (2 μg/mL)” value (S. aureus) was “never observed”, the “Cilagicin MIC” value (Klebsiella pneumoniae) was over 64 µg/mL and the “Cilagicin MIC” value (Streptococcus agalactiae) was 1 µg/mL. For the same compound, the MIC (Streptococcus agalactiae) was 1 µg/mL (≈ 0.682 µM), the “Cilagicin MIC” value (Enterococcus gallinarum) was 0.5 µg/mL and the “Cilagicin MIC” value (Bacillus subtilis) was 2 µg/mL. The “Cilagicin MIC” value [1] was 0.125 µg/mL, the “antibacterial activity (MIC) in the presence of serum” value (Staphylococcus aureus) was “significantly suppressed” and the “Cilagicin MIC” value (Enterococcus faecalis) was 0.5 µg/mL. The “Cilagicin MIC” value (Enterobacter cloacae) was over 64 µg/mL, the “Cilagicin MIC” value (Streptococcus pyrogens) was 0.125 µg/mL and the MIC (Streptococcus pyrogens) was 0.125 µg/mL (≈ 0.0852 µM). The “Cilagicin MIC” value (Enterococcus faecium) was 0.5 µg/mL, the MIC (Enterococcus faecium) was 0.5 µg/mL (≈ 0.341 µM) and the MIC (Gram-positive pathogens) was 1 µg/mL (≈ 0.682 µM). For the same compound, the MICs (Gram-positive pathogens) was at most 0.25 µg/mL, the “minimum inhibitory concentrations (MIC)” value (Gram-positive pathogens) was 0.125 to 2 µg/mL and the MIC (Streptococcus pneumoniae) was 0.25 µg/mL (≈ 0.17 µM). For the same compound, the “Cilagicin MIC” value (Acinetobacter baumannii) was 8 µg/mL, the MIC (Acinetobacter baumannii; A. baumannii (Table 5)) was 8 µg/mL (≈ 5.45 µM) and the “Cilagicin MIC” value (Pseudomonas aeruginosa) was over 64 µg/mL. The “electron microscopy images of treated cells” value (S. aureus USA300) was “cell collapse over time” and the “accumulation of UDP-MurNAc-pentapeptide (LCMS)” value [2] was “obvious accumulation”.
